{
  "source": "patent US10641776B2",
  "about": "“Methods for measuring binding and cellular engagement of ligands with target proteins” (EUROFINS DISCOVERX CORPORATION, priority 2015, dated 2020)",
  "key": {"BRD4(1) bromodomain": {"biological_target": "BRD4(1) bromodomain (Homo sapiens, UniProt O60885)", "settings": "HEK293 cells, n=2", "text": "2. […] 3. […] 4. Count cells. 5. […] 6. […] 7. […] 8. […] 9."}, "BRD4(1)": {"biological_target": "BRD4(1) (Homo sapiens, UniProt O60885)", "settings": "0-100 micromolar; 1 hour at room temperature; 45° C. for 30s", "description": "To carry out the assay, a fusion protein [BRD4(1)-ED], which also contains an NFκB DNA binding domain at the N-terminus, was constructed with BRD4(1) and a ProLabel™ enzyme donor (ED) fragment. […] The incubation was for 1 hour at room temperature. The samples were then heated to 45° C. for 30s. EA was subsequently added into the samples (along with luminescent substrate for beta-galactosidase) and complementation was measured by measuring luminescence.\nTo carry out the assays, two separate samples were prepared wherein one sample comprises BRD4(1)(fusion) and no inhibitor whereas another sample comprises BRD4(1)(fusion) and an inhibitor. […] Following incubation, samples were exposed to increased temperatures (25° C., 45° C., 50° C. and 55° C. respectively). The samples were then centrifuged to separate the precipitate.\nTo carry out the experiment, a fusion protein was constructed comprising NFκB-BRD4(1)-ED. […] The samples were then exposed to several temperatures (25° C., 45° C., 50° C. and 55° C. respectively)."}, "c-Myc expression": {"system": "c-Myc expression", "settings": "Ciceri et al., Nat Chem Biol. 2014; read-out: Published cell potency for reducing c-Myc expression: IC50; cited from earlier work"}, "MTH1 [1]": {"biological_target": "T1, MTH1 (Homo sapiens, UniProt P36639)", "settings": "read-out: Published MTH1 potency: In vitro EC50; cited from earlier work"}, "MTH1 [2]": {"biological_target": "T1, MTH1", "settings": "read-out: Published MTH1 potency: Cellular IC50; cited from earlier work"}, "[3]": {"biological_target": "MTH1 hydrolase catalytic domain (Homo sapiens, UniProt P36639)", "test": "In-cell pulse thermal denaturation EFC assay, MTH1 hydrolase in HEK293 cells", "assay_type": "cell-based", "settings": "3 hours with inhibitor at 37° C.; for EC50: preliminary protocol"}, "H3K9me2": {"system": "H3K9me2", "settings": "Vedadi et al., Nature Chemical Biology 2011; read-out: Published cell potency for reducing H3K9me2: IC50; cited from earlier work"}, "G9a catalytic domain": {"biological_target": "T2, G9a catalytic domain (Homo sapiens, UniProt Q96KQ7)", "T2 sequence (Q96KQ7 1-1210)": "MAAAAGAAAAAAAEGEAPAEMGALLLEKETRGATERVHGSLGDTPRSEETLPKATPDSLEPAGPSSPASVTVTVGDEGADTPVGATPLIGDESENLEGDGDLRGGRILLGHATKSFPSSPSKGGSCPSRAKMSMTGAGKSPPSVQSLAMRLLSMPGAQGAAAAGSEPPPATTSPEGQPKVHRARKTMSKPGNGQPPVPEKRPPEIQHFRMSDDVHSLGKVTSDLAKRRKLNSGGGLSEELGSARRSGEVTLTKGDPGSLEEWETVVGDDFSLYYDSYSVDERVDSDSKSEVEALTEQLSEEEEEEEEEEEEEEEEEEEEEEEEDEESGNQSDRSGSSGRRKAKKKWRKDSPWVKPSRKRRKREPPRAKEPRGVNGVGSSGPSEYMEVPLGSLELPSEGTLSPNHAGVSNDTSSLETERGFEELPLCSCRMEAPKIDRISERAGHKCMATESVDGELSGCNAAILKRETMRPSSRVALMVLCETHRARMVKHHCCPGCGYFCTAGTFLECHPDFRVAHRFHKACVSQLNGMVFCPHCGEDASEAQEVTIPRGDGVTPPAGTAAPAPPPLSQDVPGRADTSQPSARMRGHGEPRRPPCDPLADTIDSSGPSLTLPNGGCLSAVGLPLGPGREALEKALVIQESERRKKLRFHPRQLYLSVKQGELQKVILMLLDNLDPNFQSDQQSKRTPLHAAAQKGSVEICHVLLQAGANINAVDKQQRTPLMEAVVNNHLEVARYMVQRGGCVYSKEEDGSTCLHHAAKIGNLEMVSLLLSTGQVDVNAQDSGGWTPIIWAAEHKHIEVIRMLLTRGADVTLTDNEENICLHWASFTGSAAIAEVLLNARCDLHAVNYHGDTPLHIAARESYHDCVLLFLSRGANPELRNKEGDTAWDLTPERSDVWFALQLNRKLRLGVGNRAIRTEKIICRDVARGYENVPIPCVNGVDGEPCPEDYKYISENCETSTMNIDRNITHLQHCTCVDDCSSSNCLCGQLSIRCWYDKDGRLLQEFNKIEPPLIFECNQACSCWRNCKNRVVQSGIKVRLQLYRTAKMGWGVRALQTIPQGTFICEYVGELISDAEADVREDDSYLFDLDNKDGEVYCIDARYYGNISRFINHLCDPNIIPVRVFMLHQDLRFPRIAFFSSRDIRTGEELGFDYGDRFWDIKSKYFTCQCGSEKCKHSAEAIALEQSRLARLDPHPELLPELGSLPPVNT", "test": "In-cell pulse thermal denaturation EFC assay, G9a methyltransferase in HEK293 cells", "assay_type": "cell-based", "settings": "3 hour incubation at 37° C.; single 3 minute denaturation step at 48° C.", "protocol": "The G9a catalytic domain is expressed with a C-terminal PL tag. A 3 hour incubation with inhibitor at 37° C. is followed by a single 3 minute denaturation step at 48° C."}, "[4]": {"biological_target": "T3, G9a protein methyltransferase (Homo sapiens, UniProt Q96KQ7)", "T3 sequence (Q96KQ7 1-1210)": "T2 sequence (Q96KQ7 1-1210)", "test": "Cell-free single-step denaturation EFC binding assay, ED-tagged G9a", "settings": "single denaturation step of 3 minutes at 50° C.; signal increase from about 10^2 nM through 10^4 nM", "description": "(§1) Data were fitted with the Hill Equation and EC50s were calculated.\nThis proof of concept G9a study was performed using a single denaturation step of 3 minutes at 50° C."}, "ABL1 protein kinase": {"biological_target": "T4, ABL1 protein kinase (Homo sapiens, UniProt P00519)", "T4 construct": "made in house; host or cells: cell extract", "T4 sequence (P00519 whole entry)": "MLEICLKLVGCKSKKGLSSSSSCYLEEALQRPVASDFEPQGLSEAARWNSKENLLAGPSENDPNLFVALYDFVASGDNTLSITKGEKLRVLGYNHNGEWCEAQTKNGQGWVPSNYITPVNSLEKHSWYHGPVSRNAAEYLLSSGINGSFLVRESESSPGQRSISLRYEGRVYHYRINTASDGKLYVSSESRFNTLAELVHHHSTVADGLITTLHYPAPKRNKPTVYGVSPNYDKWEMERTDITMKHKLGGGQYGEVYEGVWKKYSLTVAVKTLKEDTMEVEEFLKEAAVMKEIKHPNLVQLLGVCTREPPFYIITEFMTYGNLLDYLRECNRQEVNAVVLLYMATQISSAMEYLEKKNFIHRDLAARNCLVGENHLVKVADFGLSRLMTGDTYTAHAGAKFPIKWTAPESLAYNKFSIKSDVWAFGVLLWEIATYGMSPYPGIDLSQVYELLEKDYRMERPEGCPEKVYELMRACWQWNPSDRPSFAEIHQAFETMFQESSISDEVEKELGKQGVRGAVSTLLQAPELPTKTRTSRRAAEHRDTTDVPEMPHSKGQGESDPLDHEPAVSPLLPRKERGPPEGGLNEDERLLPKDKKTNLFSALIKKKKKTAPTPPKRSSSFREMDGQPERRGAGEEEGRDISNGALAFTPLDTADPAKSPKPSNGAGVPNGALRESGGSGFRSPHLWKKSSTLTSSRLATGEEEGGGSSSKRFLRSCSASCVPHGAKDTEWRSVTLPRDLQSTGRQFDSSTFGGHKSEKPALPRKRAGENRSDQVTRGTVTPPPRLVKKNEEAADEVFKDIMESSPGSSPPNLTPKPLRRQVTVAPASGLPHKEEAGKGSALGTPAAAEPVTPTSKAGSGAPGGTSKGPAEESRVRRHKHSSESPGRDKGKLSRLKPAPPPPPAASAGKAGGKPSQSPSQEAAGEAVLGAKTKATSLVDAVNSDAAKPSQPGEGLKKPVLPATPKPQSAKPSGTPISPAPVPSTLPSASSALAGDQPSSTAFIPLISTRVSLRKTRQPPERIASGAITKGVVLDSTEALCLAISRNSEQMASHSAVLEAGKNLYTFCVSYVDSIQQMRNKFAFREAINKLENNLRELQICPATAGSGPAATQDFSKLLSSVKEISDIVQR", "assay_type": "binding", "settings": "seven inhibitors; 30 cycles of 7 seconds at 42° C. / 60 seconds at 25° C.", "description": "as §1\nEC50 dose response curves for the seven inhibitors shown on the graph (inhibitor name labels and corresponding curves are in the same left to right order) were measured against ED-tagged ABL1."}},
  "data": [
    {"smiles": "Cc1sc2c(c1C)C(c1ccc(Cl)cc1)=N[C@@H](CC(=O)OC(C)(C)C)c1nnc(C)n1-2", "note": "[JQ1, (6S)-4-(4-Chlorophenyl)-2,3,9-trimethyl-6H-thieno[3,2-f][1,2,4]triazolo[4,3-a][1,4]diazepine-6-acetic acid, 1,1-dimethylethyl ester]", "values": [
      {"measurement": "Assay Window", "setting": "BRD4(1) bromodomain", "value": "3.5 +/− 0.14"},
      {"measurement": "Rescue of BRD4(1) fusion protein from heat denaturation, dose response", "setting": "BRD4(1)", "value": "rescue the fusion protein from denaturation in a dose-dependent manner"},
      {"measurement": "IC50", "setting": "c-Myc expression", "value": "~100", "unit": "nM"}
    ]},
    {"smiles": "COc1ccc2nc3c(c(C)nn3C)c(NCCOCCO)c2c1", "note": "[SCH 51344]", "values": [
      {"measurement": "EC50", "setting": "MTH1 [1]", "value": 50, "unit": "nM"},
      {"measurement": "IC50", "setting": "MTH1 [2]", "value": "< 20000", "unit": "nM"},
      {"measurement": "Assay Window", "setting": "[3]; denaturation 45° C./1.5 min.", "value": 1.9},
      {"measurement": "EC50", "setting": "[3]; denaturation 45° C./1.5 min.", "value": 370, "unit": "nM"},
      {"measurement": "Assay Window", "setting": "[3]; denaturation 48° C./3.0 min.", "value": 9.7},
      {"measurement": "EC50", "setting": "[3]; denaturation 48° C./3.0 min.", "value": 4600, "unit": "nM"}
    ]},
    {"smiles": "COc1cc2c(NC3CCN(C(C)C)CC3)nc(C3CCCCC3)nc2cc1OCCCN1CCCC1", "note": "[UNC0538, 2-Cyclohexyl-6-methoxy-N-[1-(1-methylethyl)-4-piperidinyl]-7-[3-(1-pyrrolidinyl)propoxy]-4-quinazolinamine]", "values": [
      {"measurement": "IC50", "setting": "H3K9me2", "value": "~81", "unit": "nM"},
      {"measurement": "Assay Window", "setting": "G9a catalytic domain", "value": 5.0},
      {"measurement": "Protection against denaturation of G9a, dose response", "setting": "[4]", "value": "increases in a dose-dependent manner"}
    ]},
    {"smiles": "CC(C)[C@H](CO)Nc1nc(Nc2ccc(C(=O)O)c(Cl)c2)c2ncn(C(C)C)c2n1", "note": "[purvalanol B]", "values": [
      {"measurement": "Affinity rank order for ABL1 from dose response curves", "setting": "ABL1 protein kinase", "value": "lowest affinity"}
    ]}
  ]
}
